Data taken from PubChem BioAssay (NCI).
Several values for one entry are separate records, joined by “and”; a condition that tells them apart may be missing. Equal values may be shown once.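 Grown in 96-well plates, cells were treated for 48 hours with each compound at five concentrations. Insufficient inhibition: endpoint recorded as highest concentration tested. GI50 marks 50% less growth. TGI: total growth inhibition.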

The compounds below were run on MDA-MB-468 breast (assay: NCI anticancer screen, dose series, 48 h).

Compound | GI50 | TGI
COC(=O)[C@]12CC[C@@H](C)[C@H](C)[C@@H]1C1=CC[C@@H]3[C@@]4(C)C(c5ncon5)=C[C@@](C)(CO)C4=CC[C@@]3(C)[C@]1(C)CC2 | 1950 nM | 3800 nM
COc1ccc(C(=O)Nc2ncc(Cc3ccc(F)cc3)s2)cc1 | 362 nM | > 100000 nM
Cc1cc2nc3ccc(N=Nc4ccc(N(C)C)cc4)cc3n(-c3ccccc3)c-2cc1=N | 19.5 nM | 199 nM
O=C1C(N2CCN(c3ccccc3)CC2)=C(Cl)C(=O)c2ncccc21 | 1590 nM | 3160 nM
COc1cc(C(=O)/C=C/c2c(-c3ccc(F)cc3)nc3sccn23)cc(OC)c1OC | 2810 nM | 13600 nM
O=C(O)c1cn(C2CC2)c2cc(N3CCN(S(=O)(=O)c4ccc(Cl)c(Cl)c4)CC3)c(F)cc2c1=O | 2240 nM | 6890 nM
O=C1CC(c2ccccc2)Cc2nc3ccc(Cl)cc3cc21 (configuration not stated) | 2860 nM | > 26100 nM
Cc1cc[c-]cc1.Fc1c[c-]c(-c2ccccn2)c(F)c1.N#CCC[PH+](CCC#N)c1ccccc1.[Pt+2] | 2880 nM | 9110 nM
Nc1c(C(=O)Nc2cccc3ccccc23)sc2nc3c(cc12)CCCC3 | 327 nM | > 100000 nM
Cc1ccc2c(n1)C(=O)C(Cl)=C(Nc1cccc(C(C)C)c1)C2=O | 1200 nM | 2610 nM
COc1cc(Nc2ncc3c(n2)-c2ccc(Cl)cc2C(c2c(F)cccc2OC)=NC3)ccc1C(=O)O | 45.6 nM | 19900 nM
COc1ccc(/C=C/c2nc(N3CCOCC3)c3cc(F)c(F)cc3n2)cc1OC | 748 nM | 8030 nM
CC1=C[C@H]2c3c(c(O)c(O)c4oc5cc(O)cc(O)c5c(=O)c34)[C@H](c3cc(O)c(O)c4oc5cc(O)cc(O)c5c(=O)c34)[C@H]2C(C)(C)C1 | 2070 nM | 5670 nM and 6250 nM
CCOC(=O)Nc1nc2c(F)c(F)c(F)cc2s1 | 53900 nM | > 100000 nM
NC(=O)Nc1ccc2ncnc(Nc3ccc(Cl)cc3)c2c1 | 1430 nM | 8280 nM
COC(=O)Nc1nc2c(OC)c(OC)c(OC)cc2[nH]1 | 14300 nM | > 77300 nM
Cn1cc(-c2csc(-c3cn(CCN4CCOCC4)c4ccc(F)cc34)n2)c2cccnc21 | 2200 nM | 8590 nM
C=C(C=O)[C@@H]1CC[C@]2(C)[C@H](CC=C3[C@H]4[C@@H](C)[C@H](C)CC[C@]4(C(=O)OC)CC[C@]32C)[C@@]1(C)CCC#N | 1600 nM | 3240 nM
Clc1ccccc1-c1nc2ccccc2[nH]1 | 37000 nM | > 100000 nM
COCCNc1ccc2ncc(C#Cc3cncc(C(=O)Nc4ccc(CN5CCN(C)CC5)c(C(F)(F)F)c4)c3)n2n1 | 101 nM | 260 nM
CN1CCN(c2nc(-c3csc(-c4ccccc4)n3)cc3ccccc23)CC1 | 1740 nM | 4010 nM
c1ccc(-c2n(Cc3ccc4ccccc4n3)c3ccccc3[n+]2Cc2ccc3ccccc3n2)cc1 | 105 nM | 512 nM
O=C(Cc1ccccc1)Nc1nnc(CCSCCc2nnc(NC(=O)Cc3ccccc3)s2)s1 | 36000 nM | > 100000 nM
Cc1cc(-c2ccccc2)c(C)n1Cc1ccc(Cl)cc1 | 1420 nM | 7540 nM

Compound | GI50 | TGI
O=C1Nc2ccccc2C12CC(c1ccccc1)=NN2 (configuration not stated) | 6960 nM | > 100000 nM
NC1=CC(=O)C(=O)c2cccnc21 | 10600 nM | 22500 nM
Cc1cc(N(CCCNc2ccnc3cc(Cl)ccc23)Cc2cccs2)nc(Cl)n1 | 853 nM | 5740 nM
COc1ccc(N2CCN(CC(=O)N3CCN(c4nnc(-c5ccccc5)c(-c5ccccc5)n4)CC3)CC2)cc1 | 2440 nM | 12800 nM
COc1cc(C2c3cc4c(cc3C3OC(=O)C2C3CO)OCO4)cc(OC)c1OC (configuration not stated) | < 10 nM | > 100000 nM
O=C1NC(=O)c2c1c1c3ccccc3ccc1c1[nH]c3ccc(Br)cc3c21 | 1560 nM | 3990 nM
Cc1cc(C)cc(Nc2nccc(-c3c(-c4ccc(F)cc4)ncn3C3CCNCC3)n2)c1 | 1140 nM | 2760 nM
O=C1C2C(C(=O)[N]1[Hg][c]1ccccc1)C1(Cl)C(Cl)=C(Cl)C2(Cl)C1(Cl)Cl (configuration not stated) | 233 nM | 728 nM
O=C(Cc1ccc(/C=C/C(=O)c2ncc[nH]2)cc1)Nc1ccc(Br)cc1 | 1420 nM | 4090 nM
CC(C)[C@@H](C(=O)O[C@@H]1/C=C/C(=O)O[C@@H](C)CCC/C=C/[C@@H]2C[C@H](O)C[C@H]21)[N+](C)(C)C | > 100000 nM | > 100000 nM
C[C@@H]1CN(Cc2ccc(/C=C/c3n[nH]c4ccc5nc(-c6cn[nH]c6C(F)(F)F)c6c(c5c34)CCCC6)cc2)C[C@H](C)O1 | 5890 nM | 22200 nM
C=C(C)[C@@H]1CC[C@]2(COS(C)(=O)=O)CC[C@]3(C)[C@H](CC[C@@H]4[C@@]5(C)CCCNC(C)(C)[C@@H]5CC[C@]43C)[C@@H]12 | 1750 nM | 3230 nM
Cc1ccc(C(=O)Nc2ccc(CN3CCN(C)CC3)c(C(F)(F)F)c2)cc1C#Cc1cncc2ncccc12 | 1460 nM | 18500 nM
CCN(CC)c1ccc(/C=C/C(=O)c2cccc(NS(C)(=O)=O)c2)cc1 | 3840 nM | > 100000 nM
Oc1c(I)cc(I)cc1CNCCCN(Cc1ccccn1)Cc1ccccn1 | 1010 nM | 2340 nM
COc1cc2c3c(cc4c5c(ccc4c3c1OC)OCO5)N(CCN(C)C)C2=O | 73.1 nM | 412 nM
CC(C)(C)c1ccc(C(=O)N/N=C/c2ccc(O)cc2O)cc1 | 396 nM | 2240 nM
COc1ccc2c(c1)c(CC(=O)[Se]CCC#N)c(C)n2C(=O)c1ccc(Cl)cc1 | 2500 nM | 6930 nM
O=C(c1ccc(O)cc1)c1ccc(C(=O)c2ccc(O)cc2)cc1 | 6500 nM | > 100000 nM
c1ccc(Cn2cc3c(c2)-c2oncc2CC3)cc1 | 331 nM | 
O=C1OCC2=C1C(c1cccc(F)c1)c1cc3c(cc1N2CCO)OCCO3 (configuration not stated) | 125 nM | 
COc1ccc(-c2nnc3n(C)c(=O)c4ccccc4n23)cc1O | 1210 nM | 14000 nM
CC(=O)OC1CCC2(C)C(CCC3C2CCC2(C)C(C4=CC(=O)OC4)CCC32)C1 (configuration not stated) | 5260 nM | 44900 nM
